Our source for the Kb values is ChEMBL document CHEMBL1136618, “Bis(acridinylthiourea)platinum(II) complexes: synthesis, DNA affinity, and biological activity in glioblastoma cells” (Bioorg Med Chem Lett, 2003).

The test system of the assay is Nucleic Acid. The assay is described as follows: Intrinsic binding constant in calf thymus DNA. In kind it is nucleic-acid assay, Bos taurus.

`CNC(=S)N(C)CCNc1c2ccccc2nc2ccccc12` yielded a Kb of 1500000 M⁻¹.

`CNc1c2ccccc2nc2ccccc12` yielded a Kb of 110000 M⁻¹.
